The source of these data is US20160145267A1, “HETEROARYL SUBSTITUTED PYRAZOLES” (BAYER PHARMA AKTIENGESELLSCHAFT, priority 2013, published 2016).

Test [1] has as its target T1, catalytic domain of human Bub1 (amino acids 704-1085) (Homo sapiens, UniProt O43683).
T1 construct: catalytic domain of human Bub1 (amino acids 704-1085); His6 (N); made in house; host or cells: Hi5 insect cells
Description: Bub1 kinase assay (TR-FRET). It counts as biochemical. As to the method:
To this end, 100-fold concentrated compound solutions (in DMSO) were previously prepared by serial dilution (1:3.4) of 2 mM stocks in a clear low volume 384-well source microtiter plate (Greiner Bio-One, Frickenhausen, Germany), from which 50 nL of compounds were transferred into a black low volume test microtiter plate from the same supplier. […] The resulting mixture (5 μL final volume) was incubated at 22° C. during 60 min., and the reaction was stopped by the addition of 5 μL of an aqueous EDTA-solution (50 mM EDTA, in 100 mM HEPES pH 7.5 and 0.2% (w/v) bovine serum albumin) which also contained the TR-FRET detection reagents (0.2 μM streptavidin-XL665 [Cisbio Bioassays, Codolet, France] and 1 nM anti-phoshoSerine antibody [Merck Millipore, cat. #35-001] and 0.4 nM LANCE EU-W1024 labeled anti-mouse IgG antibody [Perkin-Elmer, product no. AD0077, alternatively a Terbium-cryptate-labeled anti-mouse IgG antibody from Cisbio Bioassays can be used]). The stopped reaction mixture was further incubated 1 h at 22° C. in order to allow the formation of complexes between peptides and detection reagents. Subsequently, the amount of product was evaluated by measurement of the resonance energy transfer from the Eu-chelate-antibody complex recognizing the Phosphoserine residue to the streptavidin-XL665 bound to the biotin moiety of the peptide.
On the technique in general: In TR-FRET formats the signal depends on donor and acceptor labels being close together.

For a further test, the system named is HeLa cell line. Nature of the test: Proliferation assay (HeLa cell line). It counts as cell-based. The note with it: Homo sapiens, 96 h, read-out: Biological Assay 2: Proliferation assay (HeLa cell line) median IC50. As to the method:
Cultivated tumor cells (cells were ordered from ATCC, except HeLa-MaTu and HeLa-MaTu-ADR, which were ordered from EPO-GmbH, Berlin) were plated at a density of 1000 to 5000 cells/well, depending on the growth rate of the respective cell line, in a 96-well multititer plate in 200 μL of their respective growth medium supplemented 10% fetal calf serum. After 24 hours, the cells of one plate (zero-point plate) were stained with crystal violet (see below), while the medium of the other plates was replaced by fresh culture medium (200 μL), to which the test substances were added in various concentrations (0 μM, as well as in the range of 0.001-10 μM; the final concentration of the solvent dimethyl sulfoxide was 0.5%). The cells were incubated for 4 days in the presence of test substances. Cell proliferation was determined by staining the cells with crystal violet: the cells were fixed by adding 20 μL/measuring point of an 11% glutaric aldehyde solution for 15 minutes at room temperature. After three washing cycles of the fixed cells with water, the plates were dried at room temperature. The cells were stained by adding 100 μL/measuring point of a 0.1% crystal violet solution (pH 3.0). After three washing cycles of the stained cells with water, the plates were dried at room temperature. The dye was dissolved by adding 100 μl/measuring point of a 10% acetic acid solution. Absorbtion was determined by photometry at a wavelength of 595 nm. The change of cell number, in percent, was calculated by normalization of the measured values to the absorbtion values of the zero-point plate (=0%) and the absorbtion of the untreated (0 μm) cells (=100%). The IC50 values were determined by means of a 4 parameter fit.

Where [2] appears, read: 10 μM ATP, 1 μM peptide substrate, TR-FRET, read-out: Biological Assay 1: Bub1 kinase assay median IC50.
The mark [3] stands for this setting: 4 days incubation, crystal violet staining.

Like-named read-outs stand apart in the source and are kept apart here.

T1 sequence (O43683 704-1085): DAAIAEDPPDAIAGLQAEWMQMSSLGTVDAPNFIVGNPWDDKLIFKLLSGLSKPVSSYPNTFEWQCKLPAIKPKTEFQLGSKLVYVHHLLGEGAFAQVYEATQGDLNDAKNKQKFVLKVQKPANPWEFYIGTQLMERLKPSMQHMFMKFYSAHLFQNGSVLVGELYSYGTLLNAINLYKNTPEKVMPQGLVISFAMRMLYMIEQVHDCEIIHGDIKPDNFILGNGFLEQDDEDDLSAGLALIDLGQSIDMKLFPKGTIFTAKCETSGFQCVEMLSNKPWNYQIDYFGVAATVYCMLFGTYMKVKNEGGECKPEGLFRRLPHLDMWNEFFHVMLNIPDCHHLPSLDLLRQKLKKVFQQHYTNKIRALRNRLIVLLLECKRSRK

With `CCNC(=O)Nc1c(N)nc(-c2nn(Cc3c(F)cc(OCC)cc3F)c(C3CC3)c2C)nc1Nc1ccncc1` [Example 2-1-29, 1-{4-amino-2-[5-cyclopropyl-1-(4-ethoxy-2,6-difluorobenzyl)-4-methyl-1H-pyrazol-3-yl]-6-(pyridin-4-ylamino)pyrimidin-5-yl}-3-ethylurea], the results for the IC50 (in test [1] (setting [2]); in the test with HeLa cell line) were 19 nM and 5300 nM, respectively.
For `CCOc1cc(F)c(Cn2nc(-c3nc(Nc4ccncc4)c(NC(=O)COC)c(Nc4ccncc4)n3)c(C)c2C2CC2)c(F)c1` [Example 2-2-14, N-{2-[5-cyclopropyl-1-(4-ethoxy-2,6-difluorobenzyl)-4-methyl-1H-pyrazol-3-yl]-4,6-bis(pyridin-4-ylamino)pyrimidin-5-yl}-2-methoxyacetamide], in that order: 350 nM and 2800 nM.
As to `CCOc1cc(F)c(Cn2nc(-c3nc(N)nc(Nc4ccnnc4)n3)c(C)c2C2CC2)c(F)c1` [Example 2-1-24, 6-[5-cyclopropyl-1-(4-ethoxy-2,6-difluorobenzyl)-4-methyl-1H-pyrazol-3-yl]-N-(pyridazin-4-yl)-1,3,5-triazine-2,4-diamine], the IC50 in test [1] was determined as 130 nM; with HeLa cell line (setting [3]) it was 6000 nM.
Consider `CCOc1cc(F)c(Cn2nc(-c3nc(Nc4ccncn4)c(OC)c(Nc4ccncn4)n3)c(C)c2C2CC2)c(F)c1` [Example 2-2-5, 2-[5-cyclopropyl-1-(4-ethoxy-2,6-difluorobenzyl)-4-methyl-1H-pyrazol-3-yl]-5-methoxy-N,N′-di(pyrimidin-4-yl)pyrimidine-4,6-diamine], for which the IC50 was 180 nM in test [1] (setting [2]) and above 10000 nM in the test with HeLa cell line.
For `CCOc1cc(F)c(Cn2nc(-c3nc(Nc4ccncn4)c(NC(=O)COC)c(Nc4ccncn4)n3)c(C)c2C2CC2)c(F)c1` [Example 2-2-15, N-{2-[5-cyclopropyl-1-(4-ethoxy-2,6-difluorobenzyl)-4-methyl-1H-pyrazol-3-yl]-4,6-bis(pyrimidin-4-ylamino)pyrimidin-5-yl}-2-methoxyacetamide], the IC50 in test [1] was 42 nM; with HeLa cell line (setting [3]) it was 4700 nM.
As to `CCOc1cc(F)c(Cn2nc(-c3nc(N)c(NS(=O)(=O)C(F)(F)F)c(Nc4ccncc4)n3)c(C)c2C2CC2)c(F)c1` [Example 2-1-31, N-{4-amino-2-[5-cyclopropyl-1-(4-ethoxy-2,6-difluorobenzyl)-4-methyl-1H-pyrazol-3-yl]-6-(pyridin-4-ylamino)pyrimidin-5-yl}-1,1,1-trifluoromethanesulfonamide], the IC50 stood at 9.8 nM in test [1] (setting [2]) and 10000 nM in the test on HeLa cell line.
For `CCOc1cc(F)c(Cn2nc(-c3nc(N)cc(Nc4ccnnc4)n3)c(C)c2C2CC2)c(F)c1` [Example 2-1-23, 2-[5-cyclopropyl-1-(4-ethoxy-2,6-difluorobenzyl)-4-methyl-1H-pyrazol-3-yl]-N-(pyridazin-4-yl)pyrimidine-4,6-diamine], in that order: 18 nM and 6000 nM.
On the same counts, the results for `CCNC(=O)Nc1nc(-c2nn(Cc3c(F)cc(OCC)cc3F)c(C3CC3)c2C)nc(Nc2ccncc2)c1OC` [Example 2-1-14, 1-{2-[5-cyclopropyl-1-(4-ethoxy-2,6-difluorobenzyl)-4-methyl-1H-pyrazol-3-yl]-5-methoxy-6-(pyridin-4-ylamino)pyrimidin-4-yl}-3-ethylurea] are 310 nM and 3800 nM.
On the same counts, the results for `CCOc1cc(F)c(Cn2nc(-c3nc4c(c(Nc5ccncn5)n3)OCC(=O)N4)c(C)c2C2CC2)c(F)c1` [Example 2-1-33, 2-[5-cyclopropyl-1-(4-ethoxy-2,6-difluorobenzyl)-4-methyl-1H-pyrazol-3-yl]-4-(pyrimidin-4-ylamino)-6H-pyrimido[5,4-b][1,4]oxazin-7(8H)-one] are 34 nM and 10000 nM.
For `CCOc1cc(F)c(Cn2nc(-c3nc(N)nc(Nc4ccncn4)n3)c(C)c2C2CC2)c(F)c1` [Example 2-1-9, 6-[5-cyclopropyl-1-(4-ethoxy-2,6-difluorobenzyl)-4-methyl-1H-pyrazol-3-yl]-N-(pyrimidin-4-yl)-1,3,5-triazine-2,4-diamine], the results for the IC50 (in test [1]; in the test on HeLa cell line (setting [3])) were 12 nM and 6000 nM, respectively.
With `CCOc1cc(F)c(Cn2nc(-c3nc(N)cc(Nc4ccncc4)n3)c(C)c2C2CC2)c(F)c1` [Example 2-1-1, 2-[5-cyclopropyl-1-(4-ethoxy-2,6-difluorobenzyl)-4-methyl-1H-pyrazol-3-yl]-N-(pyridin-4-yl)pyrimidine-4,6-diamine], the IC50 is 10 nM in test [1] (setting [2]) and above 10000 nM in the test with HeLa cell line.
For `CCOc1cc(F)c(Cn2nc(-c3nc(N)cc(Nc4ccnc(OC)c4)n3)c(C)c2C2CC2)c(F)c1` [Example 2-1-2, 2-[5-cyclopropyl-1-(4-ethoxy-2,6-difluorobenzyl)-4-methyl-1H-pyrazol-3-yl]-N-(2-methoxypyridin-4-yl)pyrimidine-4,6-diamine], in that order: 260 nM and 7500 nM.
For `CCNC(=O)Nc1cc(Nc2ccncn2)nc(-c2nn(Cc3c(F)cc(OCC)cc3F)c(C3CC3)c2C)n1` [Example 2-1-11, 1-{2-[5-cyclopropyl-1-(4-ethoxy-2,6-difluorobenzyl)-4-methyl-1H-pyrazol-3-yl]-6-(pyrimidin-4-ylamino)pyrimidin-4-yl}-3-ethylurea], in that order: 130 nM and 4900 nM.
As to `CCOc1cc(F)c(Cn2nc(-c3nc(N)c(OC)c(Nc4ccncc4)n3)c(C)c2C2CC2)c(F)c1` [Example 2-1-4, 2-[5-cyclopropyl-1-(4-ethoxy-2,6-difluorobenzyl)-4-methyl-1H-pyrazol-3-yl]-5-methoxy-N-(pyridin-4-yl)pyrimidine-4,6-diamine], the IC50 was 4.8 nM in test [1] (setting [2]) and 3500 nM in the test on HeLa cell line.
Turning to `CCOc1cc(F)c(Cn2nc(-c3nc(N)c(OCCOC)c(Nc4ccncn4)n3)c(C)c2C2CC2)c(F)c1` [Example 2-1-26, 2-[5-cyclopropyl-1-(4-ethoxy-2,6-difluorobenzyl)-4-methyl-1H-pyrazol-3-yl]-5-(2-methoxyethoxy)-N-(pyrimidin-4-yl)pyrimidine-4,6-diamine], the figures for the IC50 (in test [1]; in the test on HeLa cell line (setting [3])) were 9.2 nM and 4200 nM, respectively.
In the case of `CCNC(=O)Nc1c(Nc2ccncc2)nc(-c2nn(Cc3c(F)cc(OCC)cc3F)c(C3CC3)c2C)nc1Nc1ccncc1` [Example 2-2-16, 1-{2-[5-cyclopropyl-1-(4-ethoxy-2,6-difluorobenzyl)-4-methyl-1H-pyrazol-3-yl]-4,6-bis(pyridin-4-ylamino)pyrimidin-5-yl}-3-ethylurea], the results for the IC50 (in test [1] (setting [2]); with HeLa cell line) were 150 nM and 2200 nM, respectively.
On the same counts, the results for `CCOc1cc(F)c(Cn2nc(-c3nc4c(c(Nc5ccncc5)n3)OCC(=O)N4)c(C)c2C2CC2)c(F)c1` [Example 2-1-32, 2-[5-cyclopropyl-1-(4-ethoxy-2,6-difluorobenzyl)-4-methyl-1H-pyrazol-3-yl]-4-(pyridin-4-ylamino)-6H-pyrimido[5,4-b][1,4]oxazin-7(8H)-one] are 12 nM and above 10000 nM.
`CCOc1cc(F)c(Cn2nc(-c3nc(N)c(NS(=O)(=O)CC)c(Nc4ccncc4)n3)c(C)c2C2CC2)c(F)c1` [Example 2-1-30, N-{4-amino-2-[5-cyclopropyl-1-(4-ethoxy-2,6-difluorobenzyl)-4-methyl-1H-pyrazol-3-yl]-6-(pyridin-4-ylamino)pyrimidin-5-yl}ethanesulfonamide]: the IC50 in test [1] (setting [2]) is 8.8 nM; with HeLa cell line, above 10000 nM.
For the compound `CCNC(=O)Nc1nc(-c2nn(Cc3c(F)cc(OCC)cc3F)c(C3CC3)c2C)nc(Nc2ccncc2)c1N1CCOCC1` [Example 2-1-18, 1-{2-[5-cyclopropyl-1-(4-ethoxy-2,6-difluorobenzyl)-4-methyl-1H-pyrazol-3-yl]-5-(morpholin-4-yl)-6-(pyridin-4-ylamino)pyrimidin-4-yl}-3-ethylurea], the IC50 in test [1] was 290 nM; in the test on HeLa cell line (setting [3]), 10000 nM.
